Laboratory results from PMC3176802, “Structural Basis for Distinct Binding Properties of the Human Galectins to Thomsen-Friedenreich Antigen” (PLoS ONE, 2011).
“Also recorded” adds a separate entry of the source.

Columns and labels:
Assay type in all cases: binding
Gal-3-g1-L4 mutant = target: T1, Gal-3-g1-L4 mutant (Homo sapiens, UniProt P17931, E165H/INS164A/N166G/N167D/R168A); experiment: SPR assay, Gal-3-g1-L4 over immobilized biotin labeled GM1; conditions: mutant Gal-3-g1-L4, immobilized biotin labeled GM1 pentasaccharide, steady state affinity model, 298 K
T1 construct: The molecule used in this study is a truncated CRD domain of Gal-3; made in house; host or cells: Escherichia coli BL21 (DE3)
T1 sequence (P17931 with tags, fused parts or gaps INS164A/E165H/N166G/N167D/R168A): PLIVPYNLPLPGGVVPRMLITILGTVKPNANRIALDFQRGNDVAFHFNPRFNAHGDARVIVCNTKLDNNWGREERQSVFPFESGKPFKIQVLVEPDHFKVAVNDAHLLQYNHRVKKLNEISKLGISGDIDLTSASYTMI
Description: (§1) The mutants, Gal-1-g3-L4 and Gal-3-g1-L4, were designed by exchanging two loops, g1-L4 and g3-L4. These mutants were constructed using Quick Change Site Directed Mutagenesis method, and then the proteins were expressed and purified as above procedures.
(§2) Biotin labeled GM1 pentasaccharide (from CFG) was dissolved into PBS buffer and connected covalently onto a streptavidin (SA) chip as the immobilized phase. […] Galectins in the sample buffer (20 mM PBS, pH7.5, 0.005% Tween 20) were as the flowing phase. Analytes with volume of 30 µl at various concentrations ordered from low to high were programmed to inject with a 30 µl/min flow rate under different sensorgrams. In order to correct for instrumental and concentration effects, a blank flow channel was used as reference. Specific binding analyses were identified by subtraction of the control channel. The kinetic analyses of molecular interactions were calculated according to the steady state affinity model by BIAcore T100 Evaluation software.

human galectin-1 (Gal-1) [1] = target: T2, human galectin-1 (Gal-1) (Homo sapiens, UniProt P09382); experiment: ITC assay, ligand titrating native Gal-1; conditions: Gal-1, 298 K
T2 construct: made in house; host or cells: Escherichia coli BL21 (DE3)
T2 sequence (P09382 whole entry): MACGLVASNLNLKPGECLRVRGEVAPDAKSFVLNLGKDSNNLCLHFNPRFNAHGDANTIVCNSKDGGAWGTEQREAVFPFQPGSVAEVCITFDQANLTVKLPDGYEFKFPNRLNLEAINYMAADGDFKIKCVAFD
Description: (§3) The delayed time between injections is 180 s. For every ligands, at least three titrations were done. The dissociation constants (Kd) were calculated using the Origin Program and the experimental data were fitted to a one-set-of-sites model.

[2] = target: T3, human galectin-3 carbohydrate recognition domain (Gal-3 CRD) (Homo sapiens, UniProt P17931); experiment: ITC assay, ligand titrating native Gal-3 CRD; conditions: 298 K
T3 construct: The molecule used in this study is a truncated CRD domain of Gal-3; made in house; host or cells: Escherichia coli BL21 (DE3)
T3 sequence (P17931 118-248 limits assumed): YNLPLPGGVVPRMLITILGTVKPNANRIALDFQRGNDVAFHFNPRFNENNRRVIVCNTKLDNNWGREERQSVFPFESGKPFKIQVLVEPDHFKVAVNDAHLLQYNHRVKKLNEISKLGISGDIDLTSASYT
Description: as §3

[3] = target: T4, human galectin-3 CRD (Gal-3 CRD) (Homo sapiens, UniProt P17931); experiment: SPR assay, Gal-3 CRD over immobilized biotin labeled GM1; conditions: immobilized biotin labeled GM1 pentasaccharide, steady state affinity model, 298 K
T4 construct: The molecule used in this study is a truncated CRD domain of Gal-3; made in house; host or cells: Escherichia coli BL21 (DE3)
T4 sequence (P17931 118-248 limits assumed): as above
Description: as §2

[4] = target: T5, Gal-1-g3-L4 (Gal-1-51ENNR54) mutant (Homo sapiens, UniProt P09382, A56R/D55N/DEL52-52/G54N/H53E); experiment: ITC assay, ligand titrating mutant Gal-1-g3-L4; conditions: mutant Gal-1-g3-L4, 298 K; for N, stochiometry (ITC): stochiometry fixed with a value of 1
T5 construct: made in house; host or cells: Escherichia coli BL21 (DE3)
T5 sequence (P09382 with tags, fused parts or gaps DEL52-52/H53E/G54N/D55N/A56R): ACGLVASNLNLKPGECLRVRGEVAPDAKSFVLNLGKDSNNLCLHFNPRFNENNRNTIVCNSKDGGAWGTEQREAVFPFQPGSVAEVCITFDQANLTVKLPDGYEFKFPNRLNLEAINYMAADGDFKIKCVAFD
Description: as §1, §3

human galectin-1 (Gal-1) [5] = target: T2, human galectin-1 (Gal-1); experiment: SPR assay, Gal-1 over immobilized biotin labeled GM1; conditions: Gal-1, immobilized biotin labeled GM1 pentasaccharide, 298 K
Description: as §2

[6] = target: T6, Gal-3-g1-L4 (Gal-3 CRD-165AHGDA169) mutant (Homo sapiens, UniProt P17931, E165H/INS164A/N166G/N167D/R168A); experiment: ITC assay, ligand titrating mutant Gal-3-g1-L4; conditions: for N, stochiometry (ITC): stochiometry fixed with a value of 1
T6 construct: The molecule used in this study is a truncated CRD domain of Gal-3; made in house; host or cells: Escherichia coli BL21 (DE3)
T6 sequence (P17931 with tags, fused parts or gaps INS164A/E165H/N166G/N167D/R168A): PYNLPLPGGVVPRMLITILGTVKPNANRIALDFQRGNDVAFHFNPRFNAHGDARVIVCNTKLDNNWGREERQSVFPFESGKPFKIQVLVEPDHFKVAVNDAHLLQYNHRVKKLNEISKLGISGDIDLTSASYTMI
Description: as §1, §3

Gal-1-g3-L4 mutant = target: T7, Gal-1-g3-L4 mutant (Homo sapiens, UniProt P09382, A56R/D55N/DEL52-52/G54N/H53E); experiment: SPR assay, Gal-1-g3-L4 over immobilized biotin labeled GM1; conditions: mutant Gal-1-g3-L4, immobilized biotin labeled GM1 pentasaccharide, 298 K
T7 construct: made in house; host or cells: Escherichia coli BL21 (DE3)
T7 sequence (P09382 with tags, fused parts or gaps DEL52-52/H53E/G54N/D55N/A56R): as the sequence (P09382 with tags, fused parts or gaps DEL52-52/H53E/G54N/D55N/A56R) above
Description: as §1, §2

Compound: CC(=O)N[C@H]1[C@H](O[C@@H]2[C@H](O[C@]3(C(=O)O)C[C@H](O)[C@@H](NC(C)=O)[C@H]([C@H](O)[C@H](O)CO)O3)[C@@H](O)[C@H](O[C@H]3[C@H](O)[C@@H](O)C(O)O[C@@H]3CO)O[C@@H]2CO)O[C@H](CO)[C@H](O)[C@@H]1O[C@@H]1O[C@H](CO)[C@H](O)[C@H](O)[C@H]1O (some centres unmarked) [GM1, Galβ1-3GalNAcβ1-4[NeuAcα2-3]Galβ1-4Glc]
- Kd (Gal-3-g1-L4 mutant): 397 µM
- Kd (ITC) (human galectin-1 (Gal-1) [1]): can not recognize and interact; also recorded: does not bind; also recorded: No affinity
- -ΔH (ITC) ([2]; Gal-3 CRD): 4.0 kcal/mol
- N, stochiometry (ITC) ([2]; Gal-3 CRD): 1.06
- ΔS (ITC) ([2]; Gal-3 CRD): 6.0 cal/mol/deg
- Kd [3]: 62 µM
- -ΔH (ITC) [4]: 10.3 kcal/mol
- Kd [4]: 568 µM
- Kd (ITC) [4]: gains the TF-binding ability
- ΔS (ITC) [4]: −19.8 cal/mol/deg
- N, stochiometry (ITC) [4]: 1.00
- Kd (SPR) (human galectin-1 (Gal-1) [5]): No affinity
- -ΔH (ITC) ([6]; mutant Gal-3-g1-L4, 298 K): 3.2 kcal/mol
- Kd ([6]; mutant Gal-3-g1-L4, 298 K): 415 µM
- ΔS (ITC) ([6]; mutant Gal-3-g1-L4, 298 K): 4.7 cal/mol/deg
- N, stochiometry (ITC) ([6]; mutant Gal-3-g1-L4, 298 K): 1.00
- Kd (SPR) (Gal-1-g3-L4 mutant): Low affinity

Compound: Galβ1-3GalNAcα1-O-Ser/Thr [TF antigen]
- -ΔH (ITC) (human galectin-1 (Gal-1) [1]): 26.3 kcal/mol
- Kd (human galectin-1 (Gal-1) [1]): 4000 µM
- ΔS (ITC) (human galectin-1 (Gal-1) [1]): −77.2 cal/mol/deg
- N, stochiometry (ITC) (human galectin-1 (Gal-1) [1]; stochiometry fixed with a value of 1): 1.00
- -ΔH (ITC) ([2]; Gal-3 CRD): 1.9 kcal/mol
- Kd ([2]; Gal-3 CRD): 47 µM
- N, stochiometry (ITC) ([2]; Gal-3 CRD): 1.04
- ΔS (ITC) ([2]; Gal-3 CRD): 13.5 cal/mol/deg

Compound: CC(=O)N[C@H]1[C@@H](Oc2ccc([N+](=O)[O-])cc2)O[C@H](CO)[C@H](O)[C@@H]1O[C@@H]1O[C@H](CO)[C@H](O)[C@H](O)[C@H]1O [TFN, TF p-nitrophenyl]
- Kd (ITC) (human galectin-1 (Gal-1) [1]): can not recognize; also recorded: does not bind; also recorded: No affinity
- -ΔH (ITC) ([2]; Gal-3 CRD): 4.6 kcal/mol
- N, stochiometry (ITC) ([2]; Gal-3 CRD): 1.21
- ΔS (ITC) ([2]; Gal-3 CRD): 3.8 cal/mol/deg
- affinity relative to native Gal-3 (ITC) ([2]; native Gal-3 CRD as reference): 100%
- -ΔH (ITC) [4]: 1.5 kcal/mol
- Kd [4]: 719 µM
- Kd (ITC) [4]: can bind and interact
- ΔS (ITC) [4]: 9.4 cal/mol/deg
- N, stochiometry (ITC) [4]: 1.00
- -ΔH (ITC) ([6]; mutant Gal-3-g1-L4, 298 K): 3.9 kcal/mol
- Kd ([6]; mutant Gal-3-g1-L4, 298 K): 543 µM
- Kd (ITC) ([6]; mutant Gal-3-g1-L4, 298 K): very lower affinity
- ΔS (ITC) ([6]; mutant Gal-3-g1-L4, 298 K): 1.9 cal/mol/deg
- N, stochiometry (ITC) ([6]; mutant Gal-3-g1-L4, 298 K): 1.00
- affinity relative to native Gal-3 (ITC) ([6]; mutant Gal-3-g1-L4 compared to native Gal-3, 298 K): 12%
